According to patent US20210155990A1, “NF-KB REGULATED GENE EXPRESSION ASSAY FOR ASSESSING EFFICACY OF MALT1 INHIBITORS” (Janssen Pharmaceutica NV, priority 2019, published 2021):

How the values were obtained:
[1] = tested on: MALT1 regulated gene expression in NHL whole blood; settings: 100 μM 2 h, PMA-stimulated samples
Experimental: Then, aliquots were stimulated with CD3 and CD28 antibodies (1 ug/ml each), PMA (20 ng/ml) and Ionomycin (1 μg/mL), or unstimulated (PBS) for four hours. Following stimulation, the treated blood was transferred into a PAXgene tube (Qiagen; Hilden, Germany) and RNA was extracted using the PAXgene RNA kit.
Gene expression was measured using 100 ng of RNA extracted from the whole blood in the Pan-Cancer Immune Profiling kit (NanoString; Seattle, Wash.) according to the manufacturer's instructions. Gene expression was normalized across samples using NanoString nSolver software. […] Briefly, log2-scaled, normalized NanoString counts were fit to a linear model (which incorporated the patient of origin) and moderated t-statistics, along with the associated Benjamini-Hochberg (BH) corrected p-values, were computed by empirical Bayes moderation of the standard errors towards a common value.

[2] = tested on: NF-κB (p50) nuclear translocation in B (CLL) cells; experiment: NF-κB nuclear translocation in B cells from CLL PBMCs, anti-IgM 6 hours (Example 6); type: cell-based, human; settings: CLL PBMC, overnight compound
Experimental: Cells were then treated with anti-IgM or left untreated for 6 hours. After stimulation, PBMC were fixed using CytoFix buffer and permeabilized using 0.1% Triton X-100 solution. Cells were then stained with anti-CD19 to label B (CLL) cells, anti-CD4 and anti-CD8 to label T cells, Hoechst 33342 to label nuclei, and anti-p105/p50 to label NF-kB subunit. Samples were analyzed on ImageStreamX to evaluate NF-kB nuclear localization in B cells or T cells. […] Statistical significance was determined using Student's t-test in Microsoft Excel.

[3] = tested on: T cells (CD4+ and CD8+) in NHL blood; experiment: CD69 expression on T cells, NHL peripheral whole blood, anti-CD3/anti-CD28 stimulation (IFC); type: cell-based, human; settings: 200 μM overnight, anti-CD3/anti-CD28 6 hours
Experimental: (§1) Both tubes were mixed well. The treated blood mixture was transferred at 3 mL per well to a 6-well polystyrene culture plate (Falcon, cat. #353046) and incubated overnight in a humidified incubator at 37° C. with 5% CO2.
(§2) The solution was mixed by pipetting with a 1 mL pipette. The plates were incubated in a humidified incubator at 37° C. with 5% CO2 for an additional 6 hours.
(§3) The next day, blood was treated with anti-CD3 and anti-CD28 stimulatory antibodies for 6 hours as described in Example 1 or left untreated. After treatment with the stimulatory antibodies, the red blood cells were lysed using multi-species lysis buffer, and the white blood cells were stained with anti-CD4 and anti-CD8 antibodies to label T cells and an anti-CD69 antibody to measure early T cell activation. Frequency of CD69-positive T cells (CD4+ and CD8+) was measured by IFC.

[4] = tested on: IL2, an NF-κB regulated gene; experiment: IL2 expression in purified T-cells and PBMCs from NHL blood (Example 8); type: cell-based, human; settings: T-cells and PBMC from NHL blood; 24 hours; anti-CD3/CD28 six hours
Experimental: The effect of a MALT inhibitor was analyzed utilizing gene expression signatures from purified T-cells and PBMCs from Non-Hodgkin's lymphoma patients. Peripheral blood was collected from five NHL patients, and the peripheral blood was allowed to stand overnight. Then, the peripheral blood was treated for 24 hours with a MALT inhibitor or DMSO control. The blood was then stimulated with monoclonal antibodies against CD3 and CD28 for six hours. Prior to stimulation and following stimulation, PBMC were purified from the treated blood using a ficoll density gradient and T-cells were purified using CD3 Beads (Miltenyi) using the manufacturers protocol. Purified cells were lysed in RLTplus (Qiagen) and RNA was extracted from the purified cells using an AllPrepkit (Qiagen). Gene expression was measured using 100 ng of RNA in the Pan-Cancer Immune Profiling kit (NanoString) according to the manufacturer's instructions.

[5] = tested on: MALT1 regulated gene expression in CLL whole blood; settings: 200 μM 24 h, anti-CD3/CD28 four hours
Experimental: (§4) Peripheral blood was collected from three NHL and two CLL patients. […] Prior to stimulation and following stimulation, the treated blood was transferred into a PAXgene tube (Qiagen; Hilden, Germany) and RNA was extracted using the PAXgene RNA kit. Gene expression was measured using 100 ng of RNA extracted from the whole blood in the Pan-Cancer Immune Profiling kit (NanoString; Seattle, Wash.) according to the manufacturer's instructions.

[6] = tested on: NF-κB (p50) nuclear translocation in CD19-positive B (CLL) cells; experiment: NF-κB nuclear translocation in B cells from CLL PBMCs, anti-IgM 30 minutes (Example 5); type: cell-based, human; settings: 6 hours compound
Experimental: Alternatively, B cells can also be activated by beads coated with anti-IgM antibody. After the stimulation, PBMCs were fixed using CytoFix buffer and permeabilized using 0.1% Triton X-100 solution. Cells were then stained with anti-CD19 to label B (CLL) cells, Hoechst 33342 to label nuclei, and anti-p105/p50 to label NF-κB subunit. Samples were analyzed on ImageStreamX to evaluate NF-κB nuclear localization in the CD19-positive cells. […] Statistical significance was determined using Student's t-test in Microsoft Excel.

[7] = tested on: NF-κB (p50) nuclear translocation in T cells; experiment: NF-kB nuclear translocation in T cells from NHL whole blood by imaging flow cytometry (Example 4); type: cell-based, human
Experimental: as §2
Frozen or fresh cells treated with the experimental conditions were obtained. For example, T cells in blood samples could be activated and the PBMCs containing the activated T cells could be isolated using the method described in Example 1. Alternatively, PBMCs in blood samples could be activated and subject to the imaging flow cytometry analysis directly without isolation. If the samples were whole blood, a minimum of 1 mL of blood was used for each test in this experiment. However, less than 1 mL whole blood can also be used in the assay. […]
The samples were imaged on an AMNIS® […]® X Mark II imaging flow cytometer (MilliporeSigma, Burlington, Mass.) immediately, using 60× magnification, and the data was analyzed in IDEAS software using an internalization module, e.g., to evaluate frequency of CD4+ and CD8+ T cells or CLL cells with nuclear enrichment of p50.
The next day, the mixture samples were treated with anti-CD3 and anti-CD28 stimulatory antibodies following a procedure as that described in Example 1. […] Samples were analyzed on ImageStreamX to evaluate NF-κB nuclear localization in the CD4 and the CD8 positive T cells.

DLBCL cell lines = experiment: Growth of DLBCL cell lines in vitro (nonclinical studies); type: cell-based
[8] = tested on: NF-κB2, TNFSF10, APOE, PYCARD expression; experiment: Gene expression in T-cells and PBMCs purified from NHL blood without stimulation (Example 9); type: cell-based, human; settings: no stimulation, 24 hours
Experimental: Peripheral blood was collected from five NHL patients, and the peripheral blood was allowed to stand overnight. Then, the peripheral blood was treated for 24 hours with a MALT inhibitor or DMSO control. PBMCs were purified from the unstimulated blood using a ficoll density gradient and T-cells were purified using CD3 Beads (Miltenyi) using the manufacturers protocol. Purified cells were lysed in RLTplus (Qiagen) and RNA was extracted from the purified cells using an AllPrep kit (Qiagen). Gene expression was measured using 100 ng of RNA in the Pan-Cancer Immune Profiling kit (NanoString) according to the manufacturer's instructions. Gene expression signatures were compared between the MALT inhibitor treated and DMSO treated samples.

[9] = tested on: T cells (CD4+ and CD8+) in normal blood; experiment: CD69 expression on T cells, normal peripheral whole blood, anti-CD3/anti-CD28 stimulation (IFC); type: cell-based, human; settings: 200 μM overnight, anti-CD3/anti-CD28 6 hours
Experimental: as §1, §2, §3

[10] = tested on: proteases, caspases, protein kinases, and G-protein-coupled receptors; experiment: Binding inhibition panel at single dose; settings: single dose of either 1 μM or 10 μM
[11] = Oral bioavailability (description)
[12] = tested on: MALT1 regulated gene expression in NHL whole blood; settings: 200 μM 24 h, anti-CD3/CD28 four hours
Experimental: as §4

[13] = tested on: NF-κB proteins (p50 and RelB) in CLL cells; settings: CLL cells treated in vitro; ELISA; cited from earlier work

| SMILES | gene expression of ICOS, POU2F2, CCR4, and CTLA4 [1] | genes upregulated [1] | NF-κB nuclear translocation in B cells activated by anti-IgM [2] | surface expression of CD69 on T cells [3] | stimulation induced upregulation of IL2 [4] | stimulation induced upregulation of CXCL10 [5] | NF-κB nuclear translocation in activated B cells [6] | NFκB nuclear translocation in T cells (canonical NF-κB signaling) ([7]; CD3/CD28 stimulation, dosage dependent) | IC50 ([7]; Homo sapiens, T-cell, overnight, CD3/CD28 stimulation 6 h, read-out: IC50, NFκB nuclear translocation in T cells) [µM] | growth of CD79b-mutant DLBCL cell lines (DLBCL cell lines) | growth of ibrutinib-resistant DLBCL cell lines harboring BTK C481S or CARD11 mutations (DLBCL cell lines) | APOE expression ([8]; purified PBMCs) | PYCARD expression ([8]; purified PBMCs) | NF-κB2 expression ([8]; purified T-cells) | TNFSF10 expression ([8]; purified T-cells) | surface expression of CD69 on CD4+ and CD8+ T cells [9] | binding inhibition of proteases, caspases, protein kinases, and G-protein-coupled receptors [10] | oral bioavailability [11] | stimulation induced upregulation of CXCL10 [12] | nuclear translocation of NF-κB proteins (p50 and RelB) [13] |
| --- | --- | --- | --- | --- | --- | --- | --- | --- | --- | --- | --- | --- | --- | --- | --- | --- | --- | --- | --- | --- |
| O=C(Nc1ccnc(C(F)(F)F)c1)c1cnn(-c2cccc3c(=O)[nH]ccc23)c1C(F)(F)F [Compound A, 1-(1-oxo-1,2 dihydroisoquinolin-5-yl)-5 (trifluoromethyl)-N-[2 (trifluoromethyl)pyridin-4 yl]-1H-pyrazole-4 carboxamide] | downregulated | no genes were significantly upregulated | inhibited | significantly inhibited | repressed | repressed | inhibited | completely blocked | ~9.5 | inhibit growth | inhibit growth | repressed | repressed | repressed | repressed | not affected | did not show significant binding inhibition | orally bioavailable | repressed |  |
| COCCOc1nc(-c2ccc(Cl)c(Cl)c2)n(-c2ccc(NC(=O)CCl)cc2)n1 [MI-2] |  |  |  |  |  |  |  |  |  |  |  |  |  |  |  |  |  |  |  | suppress |
